Source: ChEMBL document CHEMBL5584341, “Discovery of Potent, Specific, and Orally Available NLRP3 Inflammasome Inhibitors Based on Pyridazine Scaffolds for the Treatment of Septic Shock and Peritonitis” (J Med Chem, 2024)
Calls of active or inactive are those of the source. The calls are words filed in the database; no cut-off is given here.

Legend:
[1] = Cmax in BALB/c mouse at 5 mg/kg, iv measured upto 24 hrs by LC-MS/MS analysis; type: ADME, organism-based; details: in vivo
AML12 = test: Cytotoxicity against mouse AML12 cells at 5 uM incubated for 72 hrs by MTT assay; type: toxicity, cell-based; details: aml12, 72 h
[2] = molecular target: NACHT, LRR and PYD domains-containing protein 3 (Mus musculus, UniProt Q8R4B8); test: Inhibition of NLRP3 inflammasome activation in LPS/nigericin stimulated mouse BMDMs assessed as reduction in IL-1beta release pretreated with LPS for 3 hrs followed by compound addition for 40 mins prior to nigericin stimulation for 40 mins by ELISA; type: cell-based, BMDM
Chain of NACHT, LRR and PYD domains-containing protein 3 (Q8R4B8 whole entry, the tested form may be a part): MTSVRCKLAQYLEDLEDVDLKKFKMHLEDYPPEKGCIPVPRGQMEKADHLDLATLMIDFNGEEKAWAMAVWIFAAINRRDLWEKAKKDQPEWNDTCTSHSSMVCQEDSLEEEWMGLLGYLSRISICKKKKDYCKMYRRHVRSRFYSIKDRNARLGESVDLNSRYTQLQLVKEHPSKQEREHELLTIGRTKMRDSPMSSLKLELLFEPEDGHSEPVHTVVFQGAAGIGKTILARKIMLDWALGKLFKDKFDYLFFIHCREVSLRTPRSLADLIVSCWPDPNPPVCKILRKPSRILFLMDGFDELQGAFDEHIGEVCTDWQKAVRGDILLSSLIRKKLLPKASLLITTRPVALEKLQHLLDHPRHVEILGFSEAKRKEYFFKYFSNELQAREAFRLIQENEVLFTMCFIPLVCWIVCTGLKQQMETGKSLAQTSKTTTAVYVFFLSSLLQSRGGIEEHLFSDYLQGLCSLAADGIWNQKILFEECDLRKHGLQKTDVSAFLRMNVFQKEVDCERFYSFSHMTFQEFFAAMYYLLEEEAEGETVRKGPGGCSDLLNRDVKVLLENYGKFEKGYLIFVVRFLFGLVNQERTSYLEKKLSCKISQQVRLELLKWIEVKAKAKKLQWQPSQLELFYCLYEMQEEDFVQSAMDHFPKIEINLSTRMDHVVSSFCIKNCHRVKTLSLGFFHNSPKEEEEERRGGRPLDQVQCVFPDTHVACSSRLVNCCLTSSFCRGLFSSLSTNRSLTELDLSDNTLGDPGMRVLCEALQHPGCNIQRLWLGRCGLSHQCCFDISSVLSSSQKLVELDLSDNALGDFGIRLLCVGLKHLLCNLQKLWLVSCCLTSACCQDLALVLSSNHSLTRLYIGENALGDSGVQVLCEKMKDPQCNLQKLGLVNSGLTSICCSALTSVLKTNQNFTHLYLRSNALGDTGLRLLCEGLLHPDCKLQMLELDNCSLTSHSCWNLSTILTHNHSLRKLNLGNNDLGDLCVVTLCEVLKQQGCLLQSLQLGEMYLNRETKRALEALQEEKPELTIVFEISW

[3] = molecular target: NACHT, LRR and PYD domains-containing protein 3 (Mus musculus) (UniProt Q8R4B8); test: Inhibition of NLRP3 inflammasome activation in mouse BMDMs assessed as effect on pro-IL-1beta expression at 2 to 31.25 nM pretreated with LPS for 3 hrs followed by compound addition for 40 mins; type: cell-based; details: BMDM, dose 2-31.25 nM
Chain of NACHT, LRR and PYD domains-containing protein 3 (Mus musculus) (Q8R4B8 whole entry, the tested form may be a part): as above

[4] = MRT(0 to t) in BALB/c mouse at 5 mg/kg, po measured upto 24 hrs by LC-MS/MS analysis; type: ADME, organism-based; details: in vivo
Cytochrome P450 2C19 = Cytochrome P450 2C19 (Homo sapiens, UniProt P33261); test: Inhibition of human CYP2C19 upto 10 uM relative to control; type: ADME
Chain of Cytochrome P450 2C19 (P33261 whole entry): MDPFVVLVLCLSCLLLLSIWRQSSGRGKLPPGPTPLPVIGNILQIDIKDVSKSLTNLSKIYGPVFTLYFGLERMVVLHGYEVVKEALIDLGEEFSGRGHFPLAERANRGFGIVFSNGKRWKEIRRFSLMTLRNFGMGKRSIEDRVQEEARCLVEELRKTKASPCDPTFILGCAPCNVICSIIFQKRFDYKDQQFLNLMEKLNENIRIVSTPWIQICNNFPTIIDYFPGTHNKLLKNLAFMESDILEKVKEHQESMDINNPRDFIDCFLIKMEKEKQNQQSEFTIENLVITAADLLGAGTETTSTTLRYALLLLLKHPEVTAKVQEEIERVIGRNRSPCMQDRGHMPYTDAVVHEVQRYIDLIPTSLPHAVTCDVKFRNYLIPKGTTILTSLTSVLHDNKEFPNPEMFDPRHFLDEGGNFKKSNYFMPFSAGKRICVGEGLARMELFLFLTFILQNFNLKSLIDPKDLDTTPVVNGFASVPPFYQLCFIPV

Cytochrome P450 2C9 = Cytochrome P450 2C9 (Homo sapiens, UniProt P11712); test: Inhibition of human CYP2C9 upto 10 uM relative to control; type: ADME
Chain of Cytochrome P450 2C9 (P11712 whole entry): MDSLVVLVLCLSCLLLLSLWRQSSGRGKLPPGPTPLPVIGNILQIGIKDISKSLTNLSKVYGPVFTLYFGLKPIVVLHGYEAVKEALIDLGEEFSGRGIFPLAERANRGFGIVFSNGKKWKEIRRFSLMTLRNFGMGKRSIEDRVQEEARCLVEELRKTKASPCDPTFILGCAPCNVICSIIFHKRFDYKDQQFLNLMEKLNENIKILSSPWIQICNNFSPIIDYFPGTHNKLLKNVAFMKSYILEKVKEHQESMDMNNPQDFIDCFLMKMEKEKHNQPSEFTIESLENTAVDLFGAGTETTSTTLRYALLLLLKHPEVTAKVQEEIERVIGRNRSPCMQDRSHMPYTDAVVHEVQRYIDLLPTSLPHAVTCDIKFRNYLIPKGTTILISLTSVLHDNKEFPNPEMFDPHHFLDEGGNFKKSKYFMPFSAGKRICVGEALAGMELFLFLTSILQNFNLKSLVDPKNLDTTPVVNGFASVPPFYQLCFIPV

[5] = MRT(0 to t) in BALB/c mouse at 5 mg/kg, iv measured upto 24 hrs by LC-MS/MS analysis; type: ADME, organism-based; details: in vivo
[6] = Inhibition of IL-1beta release in PMA-differentiated/ LPS and nigericin stimulated human THP-1 cells at 0.1 uM pretreated with LPS for 3 hrs followed by incubation with compound for 40 mins and later stimulated with nigericin for 40 mins by ELISA; type: functional; details: THP-1, 1.333 h, time 80 min
[7] = molecular target: NACHT, LRR and PYD domains-containing protein 3 (Mus musculus) (UniProt Q8R4B8); test: Inhibition of NLRP3 inflammasome activation in mouse BMDMs assessed as effect on TNF-alpha production at 2 to 31.25 nM pretreated with compound for 40 mins followed by LPS/ nigericin stimulation; type: cell-based; details: BMDM, dose 2-31.25 nM
LX-2 [8] = test: Cytotoxicity against human LX-2 cells at 5 uM incubated for 72 hrs by MTT assay; type: toxicity, cell-based; details: lx-2, 72 h
LX-2 [9] = test: Cytotoxicity against human LX-2 cells at 20 uM incubated for 72 hrs by MTT assay; type: toxicity, cell-based; details: lx-2, 72 h
THP-1 [10] = test: Inhibition of nigericin induced ASC specks formation in PMA differentiated human THP-1 cells at 5 to 80 nM pretreated with LPS for 3 hrs followed by compound addition for 40 mins prior to nigericin stimulation for 40 mins by Western blotting analysis; type: functional, cell-based; details: dose 5-80 nM, time 80.0 min
[11] = Metabolic stability in human liver microsomes assessed as half life at 10 uM […] in presence of NADPH by LC-MS/MS analysis; type: ADME, Microsome
Mus musculus [12] = test: Inhibition of MSU crystal induced peritonitis in BALB/c mouse assessed as reduction in serum IL-1beta level at 50 to 100 mg/kg, ip pretreated with LPS for 3 hrs followed by compound addition prior to MSU stimulation for 6 hrs by ELISA; type: functional, organism-based; details: dose 50-100 mg/kg
[13] = molecular target: NACHT, LRR and PYD domains-containing protein 3 (Mus musculus) (UniProt Q8R4B8); test: Inhibition of NLRP3 inflammasome activation in mouse BMDMs assessed as effect on TNF-alpha production at 2 to 31.25 nM pretreated with compound for 40 mins followed by LPS/ATP stimulation; type: cell-based; details: BMDM, dose 2-31.25 nM
[14] = molecular target: NLR family CARD domain-containing protein 4 (Mus musculus) (UniProt Q3UP24); test: Inhibition of flagellin stimulated NLRC4 inflammasome activation in mouse BMDMs assessed as reduction in IL-1beta secretion at 0.1 to 10 uM pretreated with LPS for 3 hrs followed by compound addition for 40 mins prior to flagellin stimulation for 6 hrs by ELISA; type: cell-based; details: BMDM, dose 0.1-10 µM, time 400.0 min
Chain of NLR family CARD domain-containing protein 4 (Mus musculus) (Q3UP24 whole entry, the tested form may be a part): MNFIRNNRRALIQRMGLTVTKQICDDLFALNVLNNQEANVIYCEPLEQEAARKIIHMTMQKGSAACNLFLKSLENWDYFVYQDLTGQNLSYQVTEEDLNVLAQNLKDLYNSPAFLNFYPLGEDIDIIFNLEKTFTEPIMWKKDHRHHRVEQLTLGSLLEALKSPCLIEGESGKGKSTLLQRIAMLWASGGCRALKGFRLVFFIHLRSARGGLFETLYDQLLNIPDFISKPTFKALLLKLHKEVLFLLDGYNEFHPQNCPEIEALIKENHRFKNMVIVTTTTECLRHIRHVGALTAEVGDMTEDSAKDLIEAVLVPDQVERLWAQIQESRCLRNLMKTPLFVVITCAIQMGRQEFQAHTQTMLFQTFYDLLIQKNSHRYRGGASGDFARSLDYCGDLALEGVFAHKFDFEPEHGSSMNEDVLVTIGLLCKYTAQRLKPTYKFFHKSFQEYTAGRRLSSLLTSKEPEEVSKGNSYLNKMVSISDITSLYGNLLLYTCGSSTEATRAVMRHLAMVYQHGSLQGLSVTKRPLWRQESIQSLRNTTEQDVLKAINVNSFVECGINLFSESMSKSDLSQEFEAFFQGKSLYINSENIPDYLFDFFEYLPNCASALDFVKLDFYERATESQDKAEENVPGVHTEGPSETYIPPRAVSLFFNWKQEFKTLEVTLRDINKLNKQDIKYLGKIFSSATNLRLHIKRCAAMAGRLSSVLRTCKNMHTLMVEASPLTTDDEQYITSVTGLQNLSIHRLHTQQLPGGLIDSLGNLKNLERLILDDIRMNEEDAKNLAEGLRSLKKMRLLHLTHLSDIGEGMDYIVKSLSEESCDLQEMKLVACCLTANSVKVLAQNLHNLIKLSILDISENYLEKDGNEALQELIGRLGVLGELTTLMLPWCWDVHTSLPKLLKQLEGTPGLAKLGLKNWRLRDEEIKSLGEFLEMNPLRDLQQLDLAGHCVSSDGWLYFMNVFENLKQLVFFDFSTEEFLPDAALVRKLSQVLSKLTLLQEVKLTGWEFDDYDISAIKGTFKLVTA

[15] = molecular target: NACHT, LRR and PYD domains-containing protein 3 (Mus musculus) (UniProt Q8R4B8); test: Inhibition of NLRP3 inflammasome activation in mouse BMDMs assessed as effect on pro-IL-1beta expression at 2 to 31.25 nM pretreated with compound for 40 mins followed by LPS/nigericin stimulation; type: cell-based; details: BMDM, dose 2-31.25 nM
Mus musculus [16] = test: Antiinflammatory activity against LPS induced septic shock in BALB/c mouse assessed as reduction in TNFalpha level at 25 mg/kg, ip pretreated for 1 hr followed by LPS stimulation and measured after 3 hrs by ELISA; type: functional, organism-based; details: time 4.0 hrs
hERG (KCNH2) = hERG (KCNH2) (Homo sapiens, UniProt Q12809); test: Inhibition of human ERG at 20 uM relative to control
Chain of hERG (KCNH2) (Q12809 whole entry, the tested form may be a part): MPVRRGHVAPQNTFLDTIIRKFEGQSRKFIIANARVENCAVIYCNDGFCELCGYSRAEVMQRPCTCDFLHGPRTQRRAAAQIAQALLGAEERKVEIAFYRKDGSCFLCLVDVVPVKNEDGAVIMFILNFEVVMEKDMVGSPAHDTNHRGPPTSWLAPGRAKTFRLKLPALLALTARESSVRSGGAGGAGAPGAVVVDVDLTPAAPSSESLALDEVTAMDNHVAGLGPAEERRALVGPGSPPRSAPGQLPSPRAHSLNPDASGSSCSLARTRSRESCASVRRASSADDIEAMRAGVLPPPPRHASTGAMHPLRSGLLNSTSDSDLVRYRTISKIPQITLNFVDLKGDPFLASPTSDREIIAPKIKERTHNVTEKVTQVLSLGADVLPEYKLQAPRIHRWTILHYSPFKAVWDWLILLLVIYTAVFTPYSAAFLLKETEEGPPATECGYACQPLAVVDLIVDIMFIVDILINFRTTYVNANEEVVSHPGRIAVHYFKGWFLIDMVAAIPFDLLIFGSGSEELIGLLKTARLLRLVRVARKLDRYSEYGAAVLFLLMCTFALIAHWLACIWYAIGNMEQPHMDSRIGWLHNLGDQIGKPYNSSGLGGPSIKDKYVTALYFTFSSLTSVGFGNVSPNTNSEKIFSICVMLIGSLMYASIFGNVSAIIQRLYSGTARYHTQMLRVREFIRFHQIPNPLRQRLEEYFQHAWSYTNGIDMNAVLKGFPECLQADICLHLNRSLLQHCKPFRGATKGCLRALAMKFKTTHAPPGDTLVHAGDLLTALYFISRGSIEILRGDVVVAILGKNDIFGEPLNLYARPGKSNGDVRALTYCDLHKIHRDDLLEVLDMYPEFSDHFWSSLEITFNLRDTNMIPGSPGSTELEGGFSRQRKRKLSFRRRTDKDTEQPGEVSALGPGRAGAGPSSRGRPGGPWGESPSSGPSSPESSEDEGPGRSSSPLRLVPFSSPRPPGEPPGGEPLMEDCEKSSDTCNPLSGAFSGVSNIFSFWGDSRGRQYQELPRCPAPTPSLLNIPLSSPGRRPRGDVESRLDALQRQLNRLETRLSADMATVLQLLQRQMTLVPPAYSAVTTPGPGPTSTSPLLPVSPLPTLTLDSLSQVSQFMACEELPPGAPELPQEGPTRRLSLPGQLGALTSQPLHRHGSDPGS

[17] = molecular target: NACHT, LRR and PYD domains-containing protein 3 (Mus musculus) (UniProt Q8R4B8); test: Inhibition of NLRP3 inflammasome activation in LPS stimulated mouse BMDMs assessed as reduction in IL-1beta release at 2 to 31.25 nM pretreated with LPS for 3 hrs followed by compound addition for 40 mins prior to ATP stimulation for 1 hr by ELISA; type: cell-based; details: BMDM, dose 2-31.25 nM, time 100.0 min
Mus musculus [18] = test: Inhibition of MSU crystal induced peritonitis in BALB/c mouse assessed as reduction in IL-1beta level in peritoneal lavage fluids at 50 to 100 mg/kg, ip pretreated with LPS for 3 hrs followed by compound addition prior to MSU stimulation for 6 hrs by ELISA; type: functional, organism-based; details: dose 50-100 mg/kg
[19] = Inhibition of IL-1beta release in PMA-differentiated/ LPS and nigericin stimulated human THP-1 cells at 0.5 uM pretreated with LPS for 3 hrs followed by incubation with compound for 40 mins and later stimulated with nigericin for 40 mins by ELISA; type: functional; details: THP-1, 1.333 h, time 80 min
THP-1 [20] = test: Inhibition of nigericin induced ASC oligomerization in PMA differentiated human THP-1 cells at 5 to 80 nM pretreated with LPS for 3 hrs followed by compound addition for 40 mins prior to nigericin stimulation for 40 mins by gel electrophoresis analysis; type: functional, cell-based; details: dose 5-80 nM, time 80.0 min
[21] = molecular target: T1, Interferon-inducible protein AIM2 (Mus musculus) (UniProt Q91VJ1); test: Inhibition of poly dA:dT stimulated AIM2 inflammasome activation in mouse BMDMs assessed as reduction in IL-1beta secretion pretreated with LPS for 3 hrs followed by compound addition for 40 mins prior to poly dA:dT stimulation for 6 hrs by Western blotting analysis; type: cell-based; details: BMDM, time 400.0 min
T1 sequence (whole entry): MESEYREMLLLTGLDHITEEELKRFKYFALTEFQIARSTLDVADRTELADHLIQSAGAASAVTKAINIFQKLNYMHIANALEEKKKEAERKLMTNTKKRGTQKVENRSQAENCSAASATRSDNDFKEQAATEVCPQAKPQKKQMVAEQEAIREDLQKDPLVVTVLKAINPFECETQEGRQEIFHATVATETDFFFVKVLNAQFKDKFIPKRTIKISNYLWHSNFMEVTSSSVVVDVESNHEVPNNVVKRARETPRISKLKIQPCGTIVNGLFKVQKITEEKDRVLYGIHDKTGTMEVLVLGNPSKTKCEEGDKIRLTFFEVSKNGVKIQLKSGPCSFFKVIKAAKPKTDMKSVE

[22] = Oral bioavailability in BALB/c mouse at 5 mg/kg measured upto 24 hrs by LC-MS/MS analysis; type: ADME, organism-based; details: in vivo

SMILES: OCCN1CCC[C@@H](Nc2nnc(-c3ccc4occc4c3O)c3c2C2CCC3CC2)C1
- Cmax [1]: 3770 ng/mL
- Activity (AML12): Non-Toxic
- IC50 [2]: 0.0153 µM
- inhibition [3]: inactive
- MRT last at 24 h [4]: 6.07 h
- inhibition (INH) (Cytochrome P450 2C19): Not Active
- inhibition (INH) (Cytochrome P450 2C9): Not Active
- MRT last at 24 h [5]: 4.1 h
- inhibition at 0.1 µM [6]: 98.9%
- inhibition [7]: inactive
- Activity (LX-2 [8]): Non-Toxic
- Activity (LX-2 [9]): Toxic
- inhibition (THP-1 [10]): Active
- half-life at 10 µM [11]: > 2 h
- inhibition (Mus musculus [12]): Active
- inhibition [13]: inactive
- inhibition [14]: inactive
- inhibition [15]: inactive
- Activity (Mus musculus [16]): Active
- inhibition at 20 µM (hERG (KCNH2)): 49.1%
- inhibition [17]: Active
- inhibition (Mus musculus [18]): Active
- inhibition at 0.5 µM [19]: 98.9%
- inhibition (THP-1 [20]): Active
- inhibition [21]: inactive
- bioavailability [22]: 62%
